According to article PMC5742583, “A Functional Analysis on the Interspecies Interaction between Mouse LFA-1 and Human Intercellular Adhesion Molecule-1 at the Cell Level” (Frontiers in Immunology, 2017):
Where no end group is shown, it is not given here.

Experiments:
human monocytes = experiment: Human monocyte adhesion to plastic (MTT); format: cell-based; conditions: lovastatin 100 µM, 37°C overnight
Experimental: (§1) Monocytes were isolated from human peripheral blood mononuclear cells (PBMCs), obtained from healthy donors (Blood and Tissue Bank of Aragon; approved by the CEICA, number: C.I.PI11/006) by density gradient centrifugation using Ficoll-Paque (GE healthcare). PBMCs were resuspended at a concentration of 2.5 × 10^6 cells/ml in RPMI medium supplemented with 1% heat-inactivated human AB serum (Sigma). Cells were cultured in a Petri dish for 2 h at 37°C 5% CO2. […]
(§2) Freshly isolated monocytes or differentiated macrophages were washed twice with PBS and incubated with trypsin (PAN Biotech) for 30 min at 37°C 5% CO2. […] Next day, every well was washed twice with PBS, complete RPMI medium was added and the number or adherent remaining cells was quantified by a MTT colorimetric test ([38]). […]
(§3) Figure 6 LFA-1 is involved in human macrophage adhesion. […] (B) Macrophage phenotype was analyzed by flow cytometry testing the expression of HL-DR, CD14, CD54, and CD11a. […] Subsequently, every well was washed twice with PBS to remove non-adherent cells and quantification of cell adhesion was carried out by MTT as described in Section “Experimental Procedures.” Values are presented as mean ± SEM of three independent experiments performed by duplicate. […]

mouse macrophages = experiment: Mouse macrophage adhesion to uncoated plastic (MTT); format: cell-based; conditions: lovastatin 100 µM, 37°C overnight
Experimental: Mouse macrophages were differentiated from mouse bone marrow as previously described ([37]). Briefly, bone marrow cells isolated from mouse femur were cultured in DMEM 10% FBS, 5% horse serum, and 30% supernatant of L929 cell culture as a source of M-CSF at a density of 10^6/cm^2 for 7–8 days. Macrophage differentiation was analyzed in the same way as human macrophages but using CD11b-APC and CD11c-PE (BD) antibodies.
Freshly isolated monocytes or differentiated macrophages were washed twice with PBS and incubated with trypsin (PAN Biotech) for 30 min at 37°C 5% CO2. After that, cells were scraped gently from the plate and resuspended at a final concentration of 10^6 cells/ml in complete RPMI medium. Subsequently, 10^5 macrophages and 5 × 10^5 monocytes were added to each well and incubated with several concentrations of human D1D2, D1D2Fc, D1D5Fc, mouse D1D5Fc, control human IgG1 20 µg or lovastatin 100 µM at 37°C 5% CO2 overnight. Next day, every well was washed twice with PBS, complete RPMI medium was added and the number or adherent remaining cells was quantified by a MTT colorimetric test ([38]). In some experiments, plates previously coated with human and mouse D1D5Fc were used. […]
Figure 7 Human intercellular adhesion molecule (ICAM)-1 blocks LFA-1-mediated mouse macrophage cell adhesion. […] (B) Macrophage phenotype was analyzed by flow cytometry testing the expression CD11b and CD11c. […]

[1] = tested on: mouse B cells (ICAM-1/LFA-1 interaction); experiment: Homotypic B cell aggregation assay; format: cell-based; conditions: splenocytes activated with PHA and ionomycin, overnight 37°C
Experimental: To obtain these cells, mice were sacrificed by cervical dislocation, the spleens were removed, and splenocytes were isolated and resuspended in RPMI 10% FBS at a final concentration of 10^6 cells/ml. Cells were treated with 10 µg/ml PHA and 1 µg/ml ionomycin to activate LFA-1 and incubated at 37°C 5% CO2 overnight in flat bottom 96-well plates (10^5 cells) in the presence of peptides from LFA-1 and c-Myc (control) 250 µM, D1D2, D1D2Fc, and human IgG1 10 µg, EGTA 1 mM and lovastatin 100 µM. A qualitative aggregation assay was carried out as described ([36], [41]) with a slight modification. Briefly, positive control stimulated cell samples were arbitrarily assigned a clumping index of 10 and lovastatin samples an index of 1. Test samples were ranked from 1 to 10 based upon degree of clumping relative to stimulated and lovastatin-treated samples. Results were verified by a blind independent rating performed by a second observer.
Fresh mouse B cells were obtained from splenocytes and stimulated with PHA and ionomycin to induce homotypic adhesion. The results were quantified by establishing a clumping index that represents the degree of cell aggregation, which reflects the inhibition efficiency (Figure 3B). Cell aggregation was ranked by a clumping index from 1 to 10 based on the degree of aggregation in comparison with the stimulated cells (positive control, clumping index = 10).
Figure 3 Effect of human (ICAM-1) on the aggregation of mouse spleen cells. (A) Splenocytes isolated from mice were non treated (a) or activated with PHA (b–i) as described in Section “Experimental Procedures” and further incubated overnight with (b) medium; (c) IgG1; (d) c-Myc peptide; (e) EGTA; (f) lovastatin; (g) D1D2; (h) D1D2Fc; (i) mouse LFA-1 peptide CD11a235–259. Images were taken with an optical microscope (original magnification, 10×). Representative images from two independent experiments with similar results are shown. (B) The graph represents the rate of agglutination depending on the inhibitory effect on ICAM-1/LFA-1 interaction. Cells stimulated with PHA and ionomycin, which served as a positive control, were arbitrarily assigned agglutination index 10, which represents a percentage of aggregation between 90 and 100%. Homotypic aggregation was classified from 1 to 10 depending on the degree of aggregation relative to cells stimulated. The result was verified by a second independent observer. Values are presented as mean ± SEM of two separate experiments performed by duplicate. Statistical analysis was performed using two-way analysis of variance with Bonferroni’s posttest comparing with c-Myc peptide control. *p < 0.05; ***p < 0.001.

[2] = tested on: gp33-pulsed EL4 cells killed by mouse Tc cells (ICAM-1/LFA-1); experiment: CD8+ T cell-mediated cytotoxicity on EL4; format: cell-based; conditions: preincubation 45 min 37°C, effector:target 10:1, 4 h
ICAM-1/LFA-1 interaction = conditions: cited from earlier work
Experimental: Human and mouse LFA-1-derived peptides (human: CD11a237–261; mouse: CD11a235–259) were purchased from GenScript (Piscataway, USA) without any modification. […] Besides, incubation cells with a mouse antiCD1 ...

human macrophages = experiment: Human macrophage adhesion to plastic (MTT); format: cell-based; conditions: lovastatin 100 µM, 37°C overnight
Experimental: as §1, §2, §3

Mac-1 = conditions: cited from earlier work
From the text: (§4) In contrast, cell aggregates were clearly visible in cultures after stimulation (Figure 3A, b). […] Macrophage phenotype was confirmed by testing surface antigens by flow cytometry. Monocyte-derived macrophages expressed higher levels of HLA-DR and CD14 than undifferentiated monocytes ([51]). In addition, expression of CD54 (ICAM-1) was diminished in comparison with freshly isolated monocytes (Figure 6B). […] As shown ...

VLA-4 = conditions: cited from earlier work
From the text: as §4

D1D2Fc = biological target: T1, D1D2Fc (Homo sapiens, UniProt P05362); experiment: Isothermal titration calorimetry (ITC); conditions: VP-ITC, D1D2Fc 12 µM titrated with peptide 150 µM, PBS, 25°C, 1:n interaction model, single type of binding sites, nonlinear regression, read-out: dissociation constant (KD)
T1 construct: The synthetic first two domains of ICAM-1 alone (D1D2) or linked with human IgG1 Fc region (D1D2Fc) were expressed in Escherichia coli; made in house; host or cells: Escherichia coli
T1 sequence (P05362 with tags, fused parts or gaps limits assumed): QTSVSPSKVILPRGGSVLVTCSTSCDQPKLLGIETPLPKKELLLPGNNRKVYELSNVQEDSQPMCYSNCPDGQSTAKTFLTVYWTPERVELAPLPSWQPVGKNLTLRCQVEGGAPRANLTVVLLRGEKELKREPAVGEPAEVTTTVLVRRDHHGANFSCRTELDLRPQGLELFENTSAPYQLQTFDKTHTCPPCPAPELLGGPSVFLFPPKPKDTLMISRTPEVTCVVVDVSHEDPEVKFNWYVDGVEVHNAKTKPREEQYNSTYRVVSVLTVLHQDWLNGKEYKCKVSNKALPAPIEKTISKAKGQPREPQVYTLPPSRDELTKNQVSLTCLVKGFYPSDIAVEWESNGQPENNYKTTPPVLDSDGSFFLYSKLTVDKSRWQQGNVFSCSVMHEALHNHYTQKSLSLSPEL
Experimental: The ability of the human chimera D1D2Fc to interact with a peptide derived from its natural ligand LFA-1 in mouse was analyzed by ITC on a VP-ITC calorimeter (MicroCal) at 25°C as indicated previously ([34]). Briefly, 2.2 ml of a 12-µM solution of D1D2Fc and 0.5 ml of a 150-µM solution of peptide were prepared in PBS and degassed. Each assay consisted of a series of 28 injections of peptide solution of 10 µl each (with a 4-µl first injection) at 400 s intervals under constant stirring (459 rpm). The thermal power required to keep the cell at a constant temperature is measured, so that it provides the heat associated with each ligand injection after integrating the signal over time. The thermodynamic parameters of protein–peptide interactions (affinity, enthalpy, and entropy changes) as well as the stoichiometry were estimated by using nonlinear regression analysis. Data were analyzed using the software developed and implemented in Origin 7.0 (OriginLab).
Figure 1 Interaction of LFA-1 peptide with D1D2Fc by isothermal titration calorimetry. Purified D1D2Fc (12 µM) was titrated with a peptide derived from the binding site of mouse LFA-1 (CD11a235–259; 150 µM). The assay was performed in PBS buffer at 25°C. The nonlinear regression analysis done as described in Section “Experimental Procedures” provided a dissociation constant of 70 nM.

[3] = tested on: K562 cells killed by human NK cells (ICAM-1/LFA-1); experiment: NK cell-mediated cytotoxicity on K562; format: cell-based; conditions: peptide 250 µM, preincubation 45 min 37°C; effector:target 3:1, 4 h; annexin-V/7-AAD by FACS; vs c-Myc control; two experiments by duplicate
Experimental: The effect of human and mouse peptides derived from LFA-1 on ICAM-1/LFA-1 dependent cell–cell contact was analyzed by performing a cell cytotoxicity assay using human primary NK cells and the NK cell sensitive human leukemia K562. Primary activated human NK cells were generated by culturing PBMCs with mitomycin C inactivated R69 cells for 5 days and enriched by MACS using anti-CD56 antibodies as previously described ([39]). Cell cytotoxicity induced by NK cells on K562 was analyzed by flow cytometry as previously described ([39]). Briefly, K562 cells were preincubated with medium alone, in the presence of 250 µM of human and mouse peptides from LFA-1 or D1D2 (15 µg) for 45 min at 37°C. Then, NK cells were added at 3:1 effector:target cell ratio and incubated for 4 h at 37°C, 5% CO2. Subsequently, phosphatidylserine exposure and 7-AAD uptake were analyzed by FACS using the annexin-V/7-AAD kit from Immunostep. As a control, the cells were incubated alone with the inhibitors to evaluate their possible toxicity, which was not significant in any case.
Figure 4 Inhibition of natural killer (NK) cell-mediated cytotoxicity by human intercellular adhesion molecule-1. […] Cell death was analyzed by measuring translocation of PS by flow cytometry in the negative population for CFSE as described in experimental procedures. […]

| Compound | inhibition of adhesion of human monocytes (human monocytes) | inhibition of adhesion of mouse macrophages (mouse macrophages) | inhibition of B cell aggregation ([1]; lovastatin 100 µM, assigned clumping index 1) | inhibition of Tc cell-mediated cell death of EL4 ([2]; lovastatin 100 µM) | specific block of ICAM-1/LFA-1 interaction (ICAM-1/LFA-1 interaction; ref [42], [43]) | inhibition of adhesion of human macrophages (human macrophages) | effect on Mac-1 (Mac-1; ref [42], [43]) | inhibition of Mac-1 (Mac-1; ref [43]) | effect on VLA-4 (VLA-4; ref [42], [43]) | inhibition of VLA-4 (VLA-4; ref [43]) | Kd (D1D2Fc) | inhibition of B cell aggregation ([1]; peptide 250 µM, clumping index 1-10, two experiments by duplicate) | inhibition of NK cell-mediated cell death of K562 [3] | inhibition of Tc cell-mediated cell death of EL4 ([2]; peptide 250 µM, three experiments by duplicate) | ability to block ICAM-1/LFA-1 interaction (ICAM-1/LFA-1 interaction; ref [36]) |
| --- | --- | --- | --- | --- | --- | --- | --- | --- | --- | --- | --- | --- | --- | --- | --- |
| CC[C@H](C)C(=O)O[C@H]1C[C@@H](C)C=C2C=C[C@H](C)[C@H](CC[C@@H]3C[C@@H](O)CC(=O)O3)[C@H]21 [lovastatin, reference compound] | block completely cell adhesion | completely inhibit the adhesion | inhibit completely the aggregation | inhibited cell death | specifically block ICAM-1/LFA-1 interaction | block completely cell adhesion | without affecting | not inhibited | without affecting | not inhibited |  |  |  |  |  |
| ITDGEASDKGNISAAHDITRYIIGI [CD11a235–259] |  |  |  |  |  |  |  |  |  |  | 70 nM | completely blocked B cell aggregation | significantly inhibit cell death | able to inhibit cytotoxicity | ability to block ICAM-1/LFA-1 interaction |
